Data as given in PubChem BioAssay AID1845204 (Molecular Pharmacology Branch, DTP, NCI, 2023).

Tested on: HSSY-II tumor spheroid viability
Experiment: Anticancer human tumor HSSY-II cell line growth inhibition;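 further: spheroids exposed to compounds for seven days before reading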;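 on viability, T/C: percent of DMSO vehicle control viability so 100% = untreated level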
Conditions: spheroids with HUVEC and MSC; for IC50: curve of first compound; for viability, T/C: stronger effect = lower value; active means viability on the fitted dose curve at most 10% of control; inactive means the rest
Excerpt: Multicellular complex tumor spheroid response to DNA repair inhibitors in combination with DNA-damaging drugs
This study explores the anticancer activities of DNA-damaging drugs and inhibitors of DNA damage repair, both as single agents and in combinations. Complex tumor spheroids comprised of malignant cells, endothelial cells and mesenchymal stem cells served as an in vitro model for human solid tumors. This model system incorporates physiologically relevant features and patient-derived or established malignant cell lines with clinically relevant genetic alterations from many tumor types. Twenty-six patient-derived or established malignant cell lines were evaluated representing sarcoma, melanoma, small cell lung cancer (SCLC), non-small cell lung cancer (NSCLC), as well as bladder, ovarian and pancreatic cancers. The concentration ranges selected for each drug and investigational agent were based upon clinically achievable concentrations if the clinical Cmax of the agent was known.
Compounds. The drugs and compounds olaparib (NSC753686), talazoparib (NSC767125), berzosertib (NSC777718), elimusertib (NSC800525), nedisertib (NSC802822), VX-984 (NSC792969), AZD-1390 (NSC803789), temozolomide (NSC362856), topotecan (NSC609699), trabectedin (NSC813783), staurosporine (NSC755774), and gemcitabine (NSC613327) were obtained from the National Cancer Institute (NCI) Developmental Therapeutics Program Chemical Repository. The FDA-approved anticancer drug set is available from the Developmental Therapeutics Program at https://dtp.cancer.gov/organization/dscb/obtaining/available_plates.htm. […] The stock solutions were prepared in dimethyl sulfoxide (DMSO, Sigma-Aldrich, St. Louis, MO, cat. D2650) at 400-fold the tested concentration and stored at -70 degrees C. Prior to their use, the stock solutions were diluted in fresh medium and the final DMSO concentration in the assay was 0.25% (v/v). All drugs and investigational agents were tested over a range starting from a high concentration at or near the clinical Cmax and decreasing in half-log increments. If the clinical Cmax for an agent had not been determined, the highest concentration tested was 10 microM.
Cell Lines. The patient-derived cancer cell (PDC) lines: 156681-154-R-J1-PDC, 283228-195-R-J1-PDC, 287954-098-R-J1-PDC, 292921-168-R-J2-PDC, 349418-098-R-PDC, 425362-245-T-J1-PDC, 556581-035-R-J1-PDC, and BL0293-F563-PDC were received from the NCI Patient-Derived Models Repository (PDMR, https://pdmr.cancer.gov). The established cell lines HS-SY-2 (RRID:CVCL_8719), MPNST, and SYO-1 (RRID:CVCL_7146) were obtained from the Sloan Kettering Institute. The alveolar soft parts sarcoma cell line ASPS-1 (RRID:CVCL_S738) was established at the NCI and grown from internal seed stocks. The following established cell lines were purchased from the American Type Culture Collection (ATCC, Manassas, VA): G-401 (ATCC, cat. CRL-1441, RRID:CVCL_0270), SW982 (ATCC, cat. HTB-93, RRID:CVCL_1734), VA-ES-BJ (ATCC, cat. CRL-2138, RRID:CVCL_1785), NCI-H719 (ATCC, cat. CRL-5837, RRID:CVCL_1582), NCI-H196 (ATCC, cat. CRL-5823, RRID:CVCL_1509), NCI-H841 (ATCC, cat. CRL-5845, RRID:CVCL_1595), NCI-H1618 (ATCC, cat. CRL-5879, RRID:CVCL_1480), NCI-H1876 (ATCC, cat. CRL-5902, RRID:CVCL_1503), DMS 114 (ATCC, cat. CRL-2066; RRID:CVCL_1174), NCI-H211 (ATCC, cat. CRL-5824; RRID:CVCL_1529), and SW 1271 (ATCC, cat. CRL-2177, RRID:CVCL_1716). The small cell lung cancer cell line COR-L88 was purchased from Sigma-Aldrich (cat. 92031917-1VL, RRID:CVCL_1141). The non-small cell lung cancer cell lines NCI-H226 (RRID:CVCL_1544) and NCI-H322M (RRID:CVCL_1557) were established at the NCI and grown from internal seed stocks. Pooled donor human umbilical vein endothelial cells (HUVEC, Lonza, cat. CC-2519) and human mesenchymal stem cells (hMSC, Lonza, cat. PT-2501) were purchased from Lonza (Walkersville, MD).
Cell Culture. All cells were maintained in an incubator at 37 degrees C and 5% CO2 with 95% humidity. […]

CC(C)n1c(=O)n(C)c2cnc3cc(F)c(-c4ccc(OCCCN5CCCCC5)nc4)cc3c21 + COc1cc2c(cc1O)CCNC21CSC2c3c(OC(C)=O)c(C)c4c(c3C(COC1=O)N1C(O)C3Cc5cc(C)c(OC)c(O)c5C(C21)N3C)OCO4
< 0.0316 µM: IC50 (second compound 0.0003 µM) | IC50 (second compound 0.000949 µM) | IC50 (second compound 0.003 µM)
inactive: viability, T/C (second compound 30 pM, first compound 0.0316 µM) 128% | viability, T/C (second compound 30 pM, first compound 0.1 µM) 120% | viability, T/C (second compound 30 pM, first compound 0.316 µM) 109% | viability, T/C (second compound 30 pM, first compound 1 µM) 114% | viability, T/C (second compound 30 pM, first compound 3.16 µM) 91.9% | viability, T/C (second compound 30 pM, first compound 10 µM) 71.4% | viability, T/C (second compound 94.9 pM, first compound 0.0316 µM) 75.3% | viability, T/C (second compound 94.9 pM, first compound 0.1 µM) 73.6% | viability, T/C (second compound 94.9 pM, first compound 0.316 µM) 70% | viability, T/C (second compound 94.9 pM, first compound 1 µM) 84.1% | viability, T/C (second compound 94.9 pM, first compound 3.16 µM) 73.3% | viability, T/C (second compound 94.9 pM, first compound 10 µM) 40.2% | viability, T/C (second compound 0.0003 µM, first compound 0.0316 µM) 13.2% | viability, T/C (second compound 0.0003 µM, first compound 0.1 µM) 13.8% | viability, T/C (second compound 0.0003 µM, first compound 0.316 µM) 18% | viability, T/C (second compound 0.0003 µM, first compound 1 µM) 17.2% | viability, T/C (second compound 0.0003 µM, first compound 3.16 µM) 13.9% | viability, T/C (second compound 0.0003 µM, first compound 10 µM) 15.2%
7.16 µM: IC50 (second compound 94.9 pM)
> 10 µM: IC50 (second compound 30 pM)
active: viability, T/C (second compound 0.000949 µM, first compound 0.0316 µM) 3.04% | viability, T/C (second compound 0.000949 µM, first compound 0.1 µM) 3.45% | viability, T/C (second compound 0.000949 µM, first compound 0.316 µM) 3.44% | viability, T/C (second compound 0.000949 µM, first compound 1 µM) 5.73% | viability, T/C (second compound 0.000949 µM, first compound 3.16 µM) 4.91% | viability, T/C (second compound 0.000949 µM, first compound 10 µM) 3.99% | viability, T/C (second compound 0.003 µM, first compound 0.0316 µM) 0.18% | viability, T/C (second compound 0.003 µM, first compound 0.1 µM) 0.2% | viability, T/C (second compound 0.003 µM, first compound 0.316 µM) 0.22% | viability, T/C (second compound 0.003 µM, first compound 1 µM) 0.2% | viability, T/C (second compound 0.003 µM, first compound 3.16 µM) 0.2% | viability, T/C (second compound 0.003 µM, first compound 10 µM) 0.31%
